17 compounds from article PMC7435819, “Towards the Inhibition of Protein–Protein Interactions (PPIs) in STAT3: Insights into a New Class of Benzothiadiazole Derivatives” (Molecules, 2020) can be followed below.

Usually inhibition stands for the relative decrease from the control value, in per cent. What is called IC50 is the point on the concentration scale where inhibition reaches its midpoint. Broadly, the melting point is the temperature, or range, at which the solid turns liquid.

The target in one data set is T1, STAT3 (Homo sapiens, UniProt P40763).
T1 construct: a truncated form of STAT3 (136-705) was constructed and chromatographically purified; made in house
T1 sequence (P40763 136-705): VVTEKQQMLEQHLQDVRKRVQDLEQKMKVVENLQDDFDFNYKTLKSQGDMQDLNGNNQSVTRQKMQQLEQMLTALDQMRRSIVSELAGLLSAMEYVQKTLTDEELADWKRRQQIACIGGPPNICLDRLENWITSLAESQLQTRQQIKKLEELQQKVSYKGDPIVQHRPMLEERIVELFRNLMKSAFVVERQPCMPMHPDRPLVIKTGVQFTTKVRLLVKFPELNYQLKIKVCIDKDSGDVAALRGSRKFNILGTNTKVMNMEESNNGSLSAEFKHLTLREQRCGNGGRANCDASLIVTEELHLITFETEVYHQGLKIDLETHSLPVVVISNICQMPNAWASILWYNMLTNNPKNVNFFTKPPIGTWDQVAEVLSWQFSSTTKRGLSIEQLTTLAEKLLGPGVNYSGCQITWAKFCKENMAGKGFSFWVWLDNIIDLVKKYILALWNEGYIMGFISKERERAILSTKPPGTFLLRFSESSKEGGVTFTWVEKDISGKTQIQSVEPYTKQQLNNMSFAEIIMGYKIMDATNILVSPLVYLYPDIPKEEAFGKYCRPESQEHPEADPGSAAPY
The experiment in a line: AlphaScreen-based competitive binding assay, STAT3 SH2 domain vs FITC-GpYLPQTV. Particulars: 30 µM; n.a.: not active; read-out: STAT3 % Inhibition (30 µM). From the text:
AlphaScreen is an in vitro competitive binding test used to identify compounds that are able to inhibit the binding of proteins containing an SH2 domain to their corresponding phosphopeptides (5-carboxyfluorescein (FITC)-GpYLPQTV for STAT3 and FITC-GpYDKPHVL for STAT1) (Table 2).
AlphaScreen is a bead-based non-radioactive assay system for the detection of biomolecular interactions in a microtiter plate format. The binding of biological partners brings donor and acceptor beads into close proximity and, as a result, a fluorescent signal between 520 and 620 nm was produced. The AlphaScreen-based assays were performed in a final reaction volume of 25 μL of the assay buffer containing 10 mM HEPES–NaOH (pH 7.4), 50 mM NaCl, 1 mM EDTA (pH 8.0), 0.1% NP-40, and 10 ng/μL bovine serum albumin (BSA) in a 96-well microtiter plate at 25 °C. The pTyr peptide probes used in this study were 5-carboxyfluorescein (FITC)-GpYLPQTV for STAT3 and (FITC)-GpYDKPHVL for STAT1. Plasmid construction and protein expression were performed as previously described; the experimental method is briefly summarized as follows. Considering that the expression of the full-length protein is troublesome, a truncated form of STAT3 (136-705) was constructed and chromatographically purified (AKTA FPLC system; GE Healthcare Bio-Sciences, Piscataway, NJ, USA). The soluble STAT3 fraction was loaded on a HisTrap™ column (GE Healthcare Bio-Sciences) and eluted with an imidazole gradient (50 mM Tris–HCl pH 7.4, 300 mM NaCl, 0.2 mM EDTA, 0.1% (w/v) NP-40, 5 mM β-mercaptoethanol, 10% (v/v) glycerol, and 10–300 mM imidazole). An SDS-PAGE stained with Coomassie Brilliant Blue (CBB) was performed to check the purity of the protein (see Figure S71). Subsequently, the protein was dialyzed (10 mM HEPES-NaOH pH 7.4, 50 mM NaCl, 10 mM β-mercaptoethanol, 0.1 mM EGTA, 0.02% (w/v) NP-40, 0.2 mM phenylmethylsulphonyl fluoride (PMSF), and 10% (v/v) glycerol).
Firstly, 75 nM of each SH2-containing protein were incubated with the test compound (at the following concentrations: 1, 3, 10, and 30 µM) for 15 min. Each protein sample was then incubated for 90 min with 50 nM of its corresponding FITC-pTyr peptide and simultaneously mixed with streptavidin-coated donor beads and anti-FITC acceptor beads before detection at 570 nm using EnVison Xcite (PerkinElmer, Waltham, MA, USA).
Background: Bead proximity is the source of the signal in Alpha formats.
On to `O=S1(=O)Nc2ccccc2N1` [Compound 1a, 1H,3H-2,1,3-Benzothiadiazole-2,2-dioxide], for which the inhibition at 30 µM amounted to 16.4 ± 0.8%.

Take `Cc1ccc2c(c1)NS(=O)(=O)N2` [Compound 1b, 5-Methyl-1H,3H-2,1,3-benzothiadiazole-2,2-dioxide]: the inhibition at 30 µM worked out at 14.5 ± 0.6%.

Turning to `O=S1(=O)Nc2ccc(C(F)(F)F)cc2N1` [Compound 1c, 5-(Trifluoromethyl)-1H,3H-2,1,3-benzothiadiazole-2,2-dioxide], the inhibition at 30 µM stood at 8.2 ± 1.6%.

As to `O=S1(=O)Nc2ccc(Cl)cc2N1` [Compound 1e, 5-Chloro-1H,3H-2,1,3-benzothiadiazole-2,2-dioxide], the inhibition at 30 µM was determined as 28.2 ± 1.4%.

For `CC(=O)Nc1ccc2c(c1)NS(=O)(=O)N2` [Compound 1f, N-(2,2-Dioxo-1H,3H-2,1,3-benzothiadiazol-5-yl)acetamide], the inhibition at 30 µM worked out at 18.9 ± 2.3%.

Consider `CC(C)CCNC(=O)CCc1ccc2c(c1)NS(=O)(=O)N2` [Compound 1g, 3-(2,2-Dioxo-1H,3H-2,1,3-benzothiadiazol-5-yl)-N-(3-methylbutyl)propanamide], for which the inhibition at 30 µM was 11 ± 2.1%.

With `O=S1(=O)Nc2ccc(-c3ccccc3)cc2N1` [Compound 1i, 5-Phenyl-1H,3H-2,1,3-benzothiadiazole-2,2-dioxide], the inhibition at 30 µM is 6.1 ± 0.9%.

As for `Cc1cc2c(cc1Br)NS(=O)(=O)N2` [Compound 2a, 5-Bromo-6-methyl-1H,3H-2,1,3-benzothiadiazole-2,2-dioxide], the inhibition at 30 µM worked out at 25.6 ± 1.2%.

Turning to `Cc1ccc2c(c1)N(C)S(=O)(=O)N2C` [Compound 2b, 1,3,5-Trimethyl-2,1,3-benzothiadiazole-2,2-dioxide], the inhibition at 30 µM is 8.9 ± 1.1%.

For the compound `O=C(CN1c2ccccc2NS1(=O)=O)NCCc1ccccc1` [Compound 4, 2-(2,2-Dioxo-3H-2,1,3-benzothiadiazol-1-yl)-N-(2-phenylethyl)acetamide], the inhibition at 30 µM is 17.3 ± 1.3%.

For `Oc1nc2ccccc2[nH]1` [Compound 5, 2,3-Dihydro-1H-1,3-benzodiazol-2-one], the inhibition at 30 µM stood at 3.5 ± 5.6%.

As for `O=S1(=O)Cc2ccccc2C1` [Compound 6], the inhibition at 30 µM was 11.5 ± 0.8%.

Staying with this data set, now noted: STAT3 wild-type (WT); read-out: STAT3 inhibition: IC50.
In the case of `O=S1(=O)Nc2ccccc2N1` [Compound 1a, 1H,3H-2,1,3-Benzothiadiazole-2,2-dioxide], the IC50 is > 30 µM.

For the compound `Cc1ccc2c(c1)NS(=O)(=O)N2` [Compound 1b, 5-Methyl-1H,3H-2,1,3-benzothiadiazole-2,2-dioxide], the IC50 is > 30 µM.

As for `O=S1(=O)Nc2ccc(C(F)(F)F)cc2N1` [Compound 1c, 5-(Trifluoromethyl)-1H,3H-2,1,3-benzothiadiazole-2,2-dioxide], the IC50 is > 30 µM.

Regarding `O=S1(=O)Nc2ccc(Cl)cc2N1` [Compound 1e, 5-Chloro-1H,3H-2,1,3-benzothiadiazole-2,2-dioxide], the IC50 was > 30 µM.

Take `CC(=O)Nc1ccc2c(c1)NS(=O)(=O)N2` [Compound 1f, N-(2,2-Dioxo-1H,3H-2,1,3-benzothiadiazol-5-yl)acetamide]: the concentration for half-maximal inhibition (IC50) was > 30 µM.

As to `CC(C)CCNC(=O)CCc1ccc2c(c1)NS(=O)(=O)N2` [Compound 1g, 3-(2,2-Dioxo-1H,3H-2,1,3-benzothiadiazol-5-yl)-N-(3-methylbutyl)propanamide], the IC50 is > 30 µM.

`O=S1(=O)Nc2ccc(-c3ccccc3)cc2N1` [Compound 1i, 5-Phenyl-1H,3H-2,1,3-benzothiadiazole-2,2-dioxide]: the half-inhibitory concentration (IC50) is > 30 µM.

For the compound `Cc1cc2c(cc1Br)NS(=O)(=O)N2` [Compound 2a, 5-Bromo-6-methyl-1H,3H-2,1,3-benzothiadiazole-2,2-dioxide], the IC50 is > 30 µM.

As for `Cc1ccc2c(c1)N(C)S(=O)(=O)N2C` [Compound 2b, 1,3,5-Trimethyl-2,1,3-benzothiadiazole-2,2-dioxide], the half-inhibitory concentration (IC50) is > 30 µM.

For the compound `O=C(CN1c2ccccc2NS1(=O)=O)NCCc1ccccc1` [Compound 4, 2-(2,2-Dioxo-3H-2,1,3-benzothiadiazol-1-yl)-N-(2-phenylethyl)acetamide], the IC50 is > 30 µM.

Regarding `Oc1nc2ccccc2[nH]1` [Compound 5, 2,3-Dihydro-1H-1,3-benzodiazol-2-one], the half-inhibitory concentration (IC50) is > 30 µM.

In the case of `O=S1(=O)Cc2ccccc2C1` [Compound 6], the 50% inhibitory concentration (IC50) was > 30 µM.

Staying with this data set, now noted: Table 1; AlphaScreen-based assay at 30 µM, STAT3-SH2 domain; read-out: % Inhibition.
For the compound `NC1=NS(=O)(=O)Nc2nonc21` [III], the inhibition at 30 µM was 85.4%.

Turning to `CCN1C(Cl)=NS(=O)(=O)c2ccccc21` [II], the inhibition at 30 µM was found to be 43.4%.

Take `CN1C(Cl)=NS(=O)(=O)c2ccccc21` [I]: the inhibition at 30 µM stood at 79%.

System in a further data set: not given
Assay: not given
Details: not given
For `Cc1ccc2c(c1)NS(=O)(=O)N2` [Compound 1b, 5-Methyl-1H,3H-2,1,3-benzothiadiazole-2,2-dioxide], the melting point stood at 157 °C.

In turn, `O=S1(=O)Nc2ccc(C(F)(F)F)cc2N1` [Compound 1c, 5-(Trifluoromethyl)-1H,3H-2,1,3-benzothiadiazole-2,2-dioxide] showed a melting point of 143 °C.

Consider `O=C(CCc1ccc2c(c1)NS(=O)(=O)N2)Nc1ccccc1` [Compound 1h, 3-(2,2-Dioxo-1H,3H-2,1,3-benzothiadiazol-5-yl)-N-phenylpropanamide], for which the melting point is 192 to 197 °C.

Regarding `O=S1(=O)Nc2ccc(-c3ccccc3)cc2N1` [Compound 1i, 5-Phenyl-1H,3H-2,1,3-benzothiadiazole-2,2-dioxide], the melting point was 180 to 185 °C.

The compound `Cc1cc2c(cc1Br)NS(=O)(=O)N2` [Compound 2a, 5-Bromo-6-methyl-1H,3H-2,1,3-benzothiadiazole-2,2-dioxide] gave a melting point of 185 °C.

On to `O=S1(=O)N(Cc2ccccc2)c2ccccc2N1Cc1ccccc1` [Compound 3, 1,3-Dibenzyl-2,1,3-benzothiadiazole-2,2-dioxide], for which the melting point was 134 °C.

As to `O=C(CN1c2ccccc2NS1(=O)=O)NCCc1ccccc1` [Compound 4, 2-(2,2-Dioxo-3H-2,1,3-benzothiadiazol-1-yl)-N-(2-phenylethyl)acetamide], the melting point is 172 °C.
